In patent US20230181535A1, “UBIQUITIN-LIGASE INHIBITORS FOR THE TREATMENT OF CANCER” (FUNDACIÓN PROFESOR NOVOA SANTOS, priority 2020, published 2023):
“And” between values parts separate entries of the source, which are not always exact repeats. Equal entries are not always repeated. “Also recorded” adds a separate entry of the source.

Key:
[1] = target: T1, E3 ubiquitin-ligase Hakai (Mus musculus, UniProt Q9JIY2); experiment: In vivo Hakai-dependent ubiquitination assay in 293T cells; assay type: cell-based; settings: vs DMSO
T1 construct: expressed in transfected cells; host or cells: HEK293T
T1 sequence (Q9JIY2 1-491): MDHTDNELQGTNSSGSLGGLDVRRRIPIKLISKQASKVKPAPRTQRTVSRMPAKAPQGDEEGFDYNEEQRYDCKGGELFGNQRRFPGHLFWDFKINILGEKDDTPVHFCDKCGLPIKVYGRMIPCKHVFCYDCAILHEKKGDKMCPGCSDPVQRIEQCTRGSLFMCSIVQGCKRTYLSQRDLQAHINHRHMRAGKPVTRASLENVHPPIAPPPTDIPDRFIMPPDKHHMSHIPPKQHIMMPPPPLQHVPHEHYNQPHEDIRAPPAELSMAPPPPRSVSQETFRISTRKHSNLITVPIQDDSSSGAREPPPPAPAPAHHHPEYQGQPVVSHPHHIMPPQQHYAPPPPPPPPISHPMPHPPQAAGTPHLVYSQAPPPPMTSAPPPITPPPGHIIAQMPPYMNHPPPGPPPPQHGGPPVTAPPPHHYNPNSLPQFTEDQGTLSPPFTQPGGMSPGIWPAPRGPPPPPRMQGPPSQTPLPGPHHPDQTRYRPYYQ
Experimental: For ubiquitination assays, 750.000 HEK293T cells were seeded in 6-well cell culture plates and after 24 h were transfected with 0.25 μg Src, 0.75 μg Flag-Hakai, and 0.5 μg HA-ubiquitin with Lipofectamin 2000 (Invitrogen, UK). Six hours after transfection cells were treated with indicated concentrations of Hakin-1, Hakin-5 or the rest of the compounds tested for 36 h. Whole cell extracts were obtained in lysis buffer (20 mM Tris-HCl pH 7.5, 150 mM NaCl and 1% Triton X-100) containing 10 μg/ml leupeptin, 10 μg/ml aprotinin and 1 mM phenylmethanesulphonyl fluoride (PMSF), supplemented with 10 mM N-ethylmaleimide. Cells were harvested and subjected to western blotting using anti-HA antibody to detect ubiquitination.

HT29 cell line = experiment: Invasion assay, HT29 (dose/response); assay type: cell-based, human; settings: for cell invasion: treated 48 h, 1 μM, 10 μM, 50 μM, vs DMSO
Experimental: [The procedure below names another cell line; the source lists this cell line under the same test.] For invasion assays, cells were treated with Hakin-1 or DMSO as vehicle for 48 h using 1% FBS during the last 24 hours. 3×10^5 MDCK, MDCK-Hakai or LoVo cells were seeded in a cell invasion chamber (Cell invasion assay kit, Chemicon International) containing medium with 2% FBS. After 72 hours for MDCK and MDCK-Hakai Invasive and 16 h for LoVo cells, invasive cells invaded that reach the lower chamber containing 30% FBS were fixed and stained with crystal violet (Sigma Aldrich, St Louis, Mo.) following the manufacturer's specifications. For migration assays, HT29 cells were cultured with Hakin-1 or DMSO as vehicle for 48 h, using medium without serum the last 24 h. In the cell migration chamber were seeded 3×10^5 HT29 cells (Cell migration kit, Millipore, Bedford, Mass.) containing medium without serum. After 16 h, migrated cells in the lower chamber containing serum with 30% FBS were stained with crystal violet and counted following the manufacturer's specifications. For both invasion and migration assays cells were counted in five fields photographed with an Olympus microscope using a 20× objective, experiments were performed in triplicates for each condition and the assays were repeated at least three times. Results are expressed as mean±SD.

[2] = test system: mouse cryopreserved hepatocytes; experiment: Metabolite profiling in mouse cryopreserved hepatocytes; assay type: in vitro ADME; settings: for Area percentage in sample, 0 minute control / Area percentage in sample, 10 minute sample / Area percentage in sample, 20 minute sample / Absolute area in sample, 0 minute control / Absolute area in sample, 10 minute sample / Absolute area in sample, 20 minute sample: mouse hepatocyte samples; for Absolute area in sample, 0 minute control / Absolute area in sample, 10 minute sample / Absolute area in sample, 20 minute sample: XIC area
Experimental: Test compound (final substrate concentration 3 μM; final DMSO concentration 0.25%) were pre-incubated at 37° C., prior to the addition of a suspension of cryopreserved hepatocytes (final cell density 0.5×10^6 viable cells/mL in Williams E media supplemented with 2 mM L glutamine and 25 mM HEPES) to initiate the reaction. The reactions were stopped with acetonitrile containing internal standard at the appropriate time points ([…]). The termination plates were centrifuged at 2500 rpm at 4° C. for 30 minute to precipitate the protein. Following the hepatocyte stability assays, the samples were utilized for metabolite profiling. Hepatocyte stability in mouse and human was performed by using the incubation of tested compound (3 μM) with cryopreserved hepatocytes in suspension. Samples were removed at 6 time points over the course of a 60 min experiment and remaining test compound at each time point was analysed by using LC-MS/MS. Then, data was analysed and an intrinsic clearance (CLint) with standard error and half-life (t½) reported.
The samples from the hepatocyte stability assay were utilized for metabolite profiling. The 10 and 20 minute samples were compared to the 0 minute control sample to identified the metabolites formed. […] The areas and percentages reported for the parent and metabolites have been calculated using the XIC data; it has been assumed that each metabolite has the same ionization efficiency and that the sensitivity of the metabolite has not been affected by the biotransformation. […] For accuracy, a ppm error of less than 5 is desirable; when the response for a metabolite observed is low the ppm error maybe greater than 5. Where a metabolite has been referred to as a potential oxidation it can refer to a potential hydroxylation, epoxidation or oxide formation. Representative collision induced dissociation (CID) mass spectra were obtained for the metabolites found. Structural elucidation was then performed on the metabolite observed. The data are processed using Metabolynx XS (Waters Ltd). When the compound structure has been provided, the data is processed using mass defect filtering1 with the dealkylation tool2; if the structure is not provided then mass defect, filtering alone is used. […] The de-alkylation tool is used in addition to the mass defect filtering to take into account that when the molecule cleaves metabolically e.g. at an amine group, the mass defect may change. Following this initial processing, the data is compared to the control sample to determine whether a series of expected metabolites are observed. Finally, the same data set is processed, using 1 a.m.u. windows across the whole data acquisition range to look for non-predicted or unexpected metabolites. After the automated Metabolynx XS processing, the data are reviewed to confirm the validity of the detected metabolites and to ensure correct assignment of the metabolite observed. The elemental formula for the observed ion and compound is reported, along with the error in parts per million (ppm) for the measured ion compared to the theoretical mass of the ion. […] Therefore, structures are depicted in Markush format3 with the shaded area showing potential sites of modification. Hepatocyte stability, metabolic profiling and test compound analysis was performed by Cyprotex Discovery.

| Compound | Hakai-induced ubiquitination ([1]; HEK293T cells transfected with Hakai and ubiquitin) | IC50 (HT29 cell line; Homo sapiens, HT-29, treated 48 h, read-out: concentration at which 50% inhibition of invasion was achieved) | cell invasion (HT29 cell line) | polarity compared to parent (LCMS) ([2]; metabolite from incubating compound #1 with mouse hepatocytes) | found in hepatocyte stability assay samples (Mouse) [2] | Area percentage in sample, 0 minute control [2] | Area percentage in sample, 10 minute sample [2] | Area percentage in sample, 20 minute sample [2] | Absolute area in sample, 0 minute control [2] | Absolute area in sample, 10 minute sample [2] | Absolute area in sample, 20 minute sample [2] | Hakai protein levels ([1]; 293T cells transfected with Src, Flag-Hakai and HA-ubiquitin) | ubiquitination mediated by Hakai ([1]; 293T cells transfected with Src, Flag-Hakai and HA-ubiquitin, western blotting anti-HA) |
| --- | --- | --- | --- | --- | --- | --- | --- | --- | --- | --- | --- | --- | --- |
| O=C(O)c1ccc(-n2nnnc2SCC(O)c2ccc([N+](=O)[O-])cc2)cc1 (stereo not drawn) [MKH1] | reduced ubiquitination at 20 μM and 100 μM | ~1000 nM | reduce cell invasion | more polar than the parent | ✓ | 2.72% and 2.76% | 73.8% | 94% | 1235 | 39618 | 45169 | – | – |
| O=C(O)c1ccc(-n2nnnc2SCC(=O)c2ccc([N+](=O)[O-])cc2)cc1 [Hakin-1, 4-(5-[2-(4-nitrophenyl)-2-oxoethyl]thiol-1H-tetrazol-1-yl)benzoic acid] | – | – | reduce cell invasion | – | ✓ | 97.2% | 26.2% | 5.99% | 43574 | 14090 | 2877 | no effect was seen in Hakai protein levels; also recorded: without affecting Hakai protein levels | strongly reduces the ubiquitination mediated by Hakai in a doses dependent-manner; also recorded: specific inhibitor for Hakai-mediated ubiquitination |
